ChEMBL document CHEMBL5042554, “Discovery of Pyridone-Substituted Triazolopyrimidine Dual A2A/A1 AR Antagonists for the Treatment of Ischemic Stroke” (ACS Med Chem Lett, 2022)
pIC50, pKi: −log10 of the molar value.

How the values were obtained:
Adenosine receptor A1 [1] = molecular target: T1, Adenosine receptor A1 (Homo sapiens, UniProt P30542); test: Displacement of [3H] DPCPX from human recombinant A1 adenosine receptor expressed in CHO cells incubated for 60 mins by radioligand binding competition assay; format: cell-based
T1 sequence (P30542 whole entry): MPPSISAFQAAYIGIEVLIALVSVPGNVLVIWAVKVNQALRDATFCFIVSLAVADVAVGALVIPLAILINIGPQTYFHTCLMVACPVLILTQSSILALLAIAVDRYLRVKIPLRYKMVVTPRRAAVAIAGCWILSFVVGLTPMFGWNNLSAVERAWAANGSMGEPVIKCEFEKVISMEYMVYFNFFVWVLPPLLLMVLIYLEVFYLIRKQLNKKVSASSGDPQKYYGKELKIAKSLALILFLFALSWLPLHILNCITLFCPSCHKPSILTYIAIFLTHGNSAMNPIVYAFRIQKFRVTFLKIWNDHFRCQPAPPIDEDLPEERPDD

Adenosine receptor A2b = molecular target: T2, Adenosine receptor A2b (Homo sapiens, UniProt P29275); test: Displacement of [3H] DPCPX from human recombinant A2B adenosine receptor expressed in HEK293 cells incubated for 30 mins by radioligand binding competition assay; format: cell-based
T2 sequence (P29275 whole entry): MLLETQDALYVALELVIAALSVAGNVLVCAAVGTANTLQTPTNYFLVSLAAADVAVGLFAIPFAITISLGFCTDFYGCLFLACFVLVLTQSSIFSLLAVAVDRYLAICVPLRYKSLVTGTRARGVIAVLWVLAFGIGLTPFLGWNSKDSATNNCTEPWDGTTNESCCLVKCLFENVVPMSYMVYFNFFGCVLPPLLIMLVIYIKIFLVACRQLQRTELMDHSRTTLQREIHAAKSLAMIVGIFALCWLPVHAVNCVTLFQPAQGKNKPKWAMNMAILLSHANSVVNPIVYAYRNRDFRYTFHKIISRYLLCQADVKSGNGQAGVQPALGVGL

Adenosine receptor A2a [2] = molecular target: T3, Adenosine receptor A2a (Homo sapiens, UniProt P29274); test: Displacement of [3H] ZM241385 from human recombinant A2A adenosine receptor expressed in HeLa cells incubated for 30 mins by radioligand binding competition assay; format: cell-based
Adenosine receptor A3 = molecular target: T4, Adenosine receptor A3 (Homo sapiens, UniProt P0DMS8); test: Displacement of [3H] NECA from human recombinant A3 receptor expressed in HeLa cells incubated for 180 mins by radioligand binding competition assay; format: cell-based
T4 sequence (P0DMS8 whole entry): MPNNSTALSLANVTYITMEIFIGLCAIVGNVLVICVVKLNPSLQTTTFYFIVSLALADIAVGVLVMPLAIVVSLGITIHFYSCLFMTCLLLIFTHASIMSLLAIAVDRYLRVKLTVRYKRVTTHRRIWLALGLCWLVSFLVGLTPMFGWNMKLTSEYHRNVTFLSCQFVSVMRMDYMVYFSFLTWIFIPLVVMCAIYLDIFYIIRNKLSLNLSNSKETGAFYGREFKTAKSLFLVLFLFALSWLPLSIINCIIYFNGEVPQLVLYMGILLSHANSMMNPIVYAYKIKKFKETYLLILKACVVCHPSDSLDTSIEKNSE

Adenosine receptor A1 [3] = molecular target: T1, Adenosine receptor A1; test: Antagonist activity at human recombinant adenosine A1 receptor transfected in HEK293 cells co-transfected with Galpha15/16 assessed as intracellular calcium change incubated for 10 mins by microplate reader method; format: functional, cell-based
Adenosine receptor A2a [4] = molecular target: T3, Adenosine receptor A2a; test: Antagonist activity at human recombinant adenosine A2A receptor transfected in HEK293 cells co-transfected with Galpha15/16 assessed as intracellular calcium change incubated for 10 mins by microplate reader method; format: functional, cell-based

T3 sequence (P29274 whole entry): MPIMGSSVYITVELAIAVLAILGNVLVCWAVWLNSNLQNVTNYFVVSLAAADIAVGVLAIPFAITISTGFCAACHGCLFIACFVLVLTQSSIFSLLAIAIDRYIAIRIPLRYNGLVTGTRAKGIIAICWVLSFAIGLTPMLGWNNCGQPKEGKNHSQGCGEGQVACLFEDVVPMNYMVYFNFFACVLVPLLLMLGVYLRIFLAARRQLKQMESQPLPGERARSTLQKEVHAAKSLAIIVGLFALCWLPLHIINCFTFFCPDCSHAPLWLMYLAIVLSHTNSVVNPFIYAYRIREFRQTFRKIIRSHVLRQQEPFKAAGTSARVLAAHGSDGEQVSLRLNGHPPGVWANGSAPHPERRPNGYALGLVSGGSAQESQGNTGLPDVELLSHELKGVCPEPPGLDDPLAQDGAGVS

Compound	pKi (Adenosine receptor A1 [1])	pKi (Adenosine receptor A2b)	pKi (Adenosine receptor A2a [2])	pKi (Adenosine receptor A3)	pIC50 (Adenosine receptor A1 [3])	pIC50 (Adenosine receptor A2a [4])
Cc1cccc(-c2nc3c(-c4ccc(=O)n(C)c4)cnc(N)n3n2)n1	5.76	< 5.00	5.42	< 5.00	–	–
Cn1nccc1-c1nc2c(-c3ccc(=O)n(C)c3)cnc(N)n2n1	5.53	< 5.00	6.10	< 5.00	–	–
Cn1cc(-c2cnc(N)n3nc(-c4ccccn4)nc23)ccc1=O	7.42	< 5.00	7.20	< 5.00	–	–
Cn1cc(-c2cnc(N)n3nc(-c4ccco4)nc23)ccc1=O	7.62	6.31	8.25	–	7.59	8.24
Cn1cc(-c2cnc(N)nc2-c2ccco2)ccc1=O	7.05	7.23	7.57	< 5.00	–	–
Cn1ccc(-c2nc3c(-c4ccc(=O)n(C)c4)cnc(N)n3n2)n1	6.14	< 5.00	5.47	< 5.00	–	–
Cc1cnc(-c2nc3c(-c4ccc(=O)n(C)c4)cnc(N)n3n2)s1	7.66	5.00	7.36	5.53	–	–
Cc1csc(-c2nc3c(-c4ccc(=O)n(C)c4)cnc(N)n3n2)n1	6.03	< 5.00	5.99	< 5.00	–	–
Cn1cc(-c2cnc(N)n3nc(-c4nccs4)nc23)ccc1=O	7.11	5.80	7.07	< 5.00	–	–
Cc1ccc(-c2nc3c(-c4ccc(=O)n(C)c4)cnc(N)n3n2)o1	7.05	< 5.00	6.35	5.53	–	–
